Experimental data taken from ChEMBL document CHEMBL4376892, “Identification of Parthenolide Dimers as Activators of Pyruvate Kinase M2 in Xenografts of Glioblastoma Multiforme in Vivo” (J Med Chem, 2020).
The source made the active and inactive calls. The rule behind the calls is not given here.

What was measured:
U-118-MG [1] = experiment: Antiproliferative activity against human U118MG cells assessed as reduction in cell viability after 72 hrs by MTT assay; format: functional, cell-based
U-251 = experiment: Antiproliferative activity against human U251 cells assessed as reduction in cell viability after 72 hrs by MTT assay; format: functional, cell-based; settings: U-251, 72 h
HepG2 = experiment: Antiproliferative activity against human HepG2 cells assessed as reduction in cell viability after 72 hrs by MTT assay; format: functional, cell-based; settings: HepG2, 72 h
U-118-MG [2] = experiment: Inhibition of colony formation in human U118MG cells after 7 days; format: functional, cell-based
U-87 MG [3] = experiment: Antimetastatic activity against human U87 cells assessed as reduction in cell invasion at 2 uM after 24 hrs by crystal violet staining based transwell assay; format: functional; settings: U-87MG ATCC
U-118-MG [4] = experiment: Antimetastatic activity against human U118MG cells assessed as reduction in cell invasion at 2 uM after 24 hrs by crystal violet staining based transwell assay; format: functional
U-87MG ATCC [5] = experiment: Effect on IKK-beta protein expression in human U87 cells at 0.2 to 0.5 uM after 48 hrs by Western blot analysis; format: functional, cell-based
Pyruvate kinase PKM [6] = target: T1, Pyruvate kinase PKM (Homo sapiens, UniProt P14618); experiment: Activation of PKM2 in human U118MG cells assessed as increase in E-cadherin expression at 1 to 2 uM after 24 hrs by Western blot analysis; format: cell-based
T1 sequence (P14618 2-531 limits assumed): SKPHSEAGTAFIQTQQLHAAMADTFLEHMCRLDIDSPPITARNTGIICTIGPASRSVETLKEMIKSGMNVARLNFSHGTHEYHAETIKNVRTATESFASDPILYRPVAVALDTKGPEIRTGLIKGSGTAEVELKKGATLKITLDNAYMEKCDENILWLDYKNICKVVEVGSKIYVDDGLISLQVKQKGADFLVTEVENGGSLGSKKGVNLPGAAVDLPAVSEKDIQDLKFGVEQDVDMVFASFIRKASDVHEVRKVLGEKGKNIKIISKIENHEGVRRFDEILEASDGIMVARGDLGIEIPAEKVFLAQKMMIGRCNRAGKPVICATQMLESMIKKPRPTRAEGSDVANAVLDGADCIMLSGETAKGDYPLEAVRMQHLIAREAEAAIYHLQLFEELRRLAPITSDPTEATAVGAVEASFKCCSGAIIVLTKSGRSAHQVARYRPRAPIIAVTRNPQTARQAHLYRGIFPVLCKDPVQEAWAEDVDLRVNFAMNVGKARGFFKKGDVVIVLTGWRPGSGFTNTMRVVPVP

Pyruvate kinase PKM [7] = target: T1, Pyruvate kinase PKM; experiment: Activation of PKM2 in human U118MG cells assessed as reduction in vimentin expression at 1 to 2 uM after 24 hrs by Western blot analysis; format: cell-based
Pyruvate kinase PKM [8] = target: T1, Pyruvate kinase PKM; experiment: Activation of PKM2 in human U118MG cells assessed as reduction in bcl2 expression at 1 to 2 uM after 48 hrs by Western blot analysis; format: cell-based
Pyruvate kinase PKM [9] = target: T1, Pyruvate kinase PKM; experiment: Activation of PKM2 in human U118MG cells assessed as reduction in bcl-xl expression at 1 to 2 uM after 48 hrs by Western blot analysis; format: cell-based
U-118-MG [10] = experiment: Induction of PDK4 protein expression in human U118MG cells at 2 uM after 48 hrs by Western blot analysis; format: functional, cell-based
U-87MG ATCC [11] = experiment: Induction of PDK4 protein expression in human U87 cells at 5 uM after 48 hrs by Western blot analysis; format: functional, cell-based
U-87 MG [12] = experiment: Antiproliferative activity against human U87 cells transfected with lentivirus expressing shPKM2 assessed as reduction in cell viability after 24 hrs by MTT assay; format: functional, cell-based, U-87MG ATCC
U-87 MG [13] = experiment: Induction of apoptosis in human U87 cells transfected with lentivirus expressing shNC assessed as necrotic cells after 48 hrs by Annexin-V-FITC/PI-staining based flow cytometric analysis (reference value: 0.319%); format: functional, U-87MG ATCC
U-87 MG [14] = experiment: Induction of apoptosis in human U87 cells transfected with lentivirus expressing shPKM2 assessed as necrotic cells after 48 hrs by Annexin-V-FITC/PI-staining based flow cytometric analysis (reference value: 0.580%); format: functional, U-87MG ATCC
U-118-MG [15] = experiment: Induction of apoptosis in human U118MG cells transfected with lentivirus expressing shNC assessed as necrotic cells after 48 hrs by Annexin-V-FITC/PI-staining based flow cytometric analysis (reference value: 0.418%); format: functional
U-118-MG [16] = experiment: Induction of apoptosis in human U118MG cells transfected with lentivirus expressing shPKM2 assessed as viable cells after 48 hrs by Annexin-V-FITC/PI-staining based flow cytometric analysis (reference value: 97.7%); format: functional
U-118-MG [17] = experiment: Antiinvasive activity against human U118MG cells transfected with lentivirus expressing shPKM2 at 2 uM incubated for 48 hrs by crystal violet staining based transwell assay; format: functional, cell-based
U-87 MG [18] = experiment: Antiinvasive activity against human U87 cells transfected with lentivirus expressing shPKM2 at 2 uM incubated for 48 hrs by crystal violet staining based transwell assay; format: functional, cell-based; settings: U-87MG ATCC
U-118-MG [19] = experiment: Induction of apoptosis in human U118MG cells assessed as viable cells after 48 hrs by Annexin-V-FITC/PI-staining based flow cytometric analysis (reference value: 96.7%); format: functional
U-118-MG [20] = experiment: Induction of apoptosis in human U118MG cells assessed as early apoptotic cells after 48 hrs by Annexin-V-FITC/PI-staining based flow cytometric analysis (reference value: 1.35%); format: functional
U-118-MG [21] = experiment: Induction of apoptosis in human U118MG cells assessed as late apoptotic cells after 48 hrs by Annexin-V-FITC/PI-staining based flow cytometric analysis (reference value: 0.616%); format: functional
U-87 MG [22] = experiment: Induction of apoptosis in human U87 cells assessed as late apoptotic cells after 48 hrs by Annexin-V-FITC/PI-staining based flow cytometric analysis (reference value: 1.22%); format: functional, U-87MG ATCC
U-87 MG [23] = experiment: Antiinvasive activity against human U87 cells transfected with lentivirus expressing shNC at 2 uM incubated for 48 hrs by crystal violet staining based transwell assay; format: functional, cell-based; settings: U-87MG ATCC

**Q.** With `C=C1C(=O)O[C@H]2[C@H]1CC/C(C(=O)OCCOCCOC(=O)/C1=C/CC[C@@]3(C)O[C@H]3[C@H]3OC(=O)C(=C)[C@@H]3CC1)=C\CC[C@@]1(C)O[C@@H]21` as the compound, how does the IC50 (U-118-MG [1]) read?
**A.** Its IC50 is 1800 nM.

**Q.** What about the IC50 (U-251) of the same compound?
**A.** Its IC50 is 7.14 µM.

**Q.** And the IC50 (HepG2)?
**A.** Its IC50 is 10.2 µM.

**Q.** And the inhibition (U-118-MG [2])?
**A.** Its inhibition is “Dose-dependent effect”.

**Q.** And the Activity (U-87 MG [3])?
**A.** Its Activity is “Active”.

**Q.** And the Activity (U-118-MG [4])?
**A.** Its Activity is “Active”.

**Q.** What about the Activity (U-87MG ATCC [5]) of the same compound?
**A.** The Activity was “inactive”.

**Q.** And the Activity (Pyruvate kinase PKM [6])?
**A.** Its Activity is “Active”.

**Q.** And the Activity (Pyruvate kinase PKM [7])?
**A.** Its Activity is “Active”.

**Q.** And the Activity (Pyruvate kinase PKM [8])?
**A.** Its Activity is “Active”.

**Q.** And the Activity (Pyruvate kinase PKM [9])?
**A.** Its Activity is “Active”.

**Q.** What about the Activity (U-118-MG [10]) of the same compound?
**A.** Its Activity is “Active”.

**Q.** And the Activity (U-87MG ATCC [11])?
**A.** Its Activity is “Active”.

**Q.** And the IC50 (U-87 MG [12])?
**A.** The IC50 was 1760 nM.

**Q.** And the Activity (U-87 MG [13])?
**A.** The Activity was 1.24%.

**Q.** What about the Activity (U-87 MG [14]) of the same compound?
**A.** The Activity was 0.539%.

**Q.** What about the Activity (U-118-MG [15]) of the same compound?
**A.** The Activity was 1.85%.

**Q.** What about the Activity (U-118-MG [16]) of the same compound?
**A.** The Activity was 92.8%.

**Q.** What about the Activity (U-118-MG [17]) of the same compound?
**A.** The Activity was “inactive”.

**Q.** And the Activity (U-87 MG [18])?
**A.** Its Activity is “inactive”.

**Q.** And the Activity (U-118-MG [19])?
**A.** The Activity was 12.5%.

**Q.** And the Activity (U-118-MG [20])?
**A.** The Activity was 39.4%.

**Q.** And the Activity (U-118-MG [21])?
**A.** Its Activity is 42.1%.

**Q.** What about the Activity (U-87 MG [22]) of the same compound?
**A.** The Activity was 2.82%.

**Q.** What about the Activity (U-87 MG [23]) of the same compound?
**A.** The Activity was “Active”.
